Measurements taken from patent publication US20250388625A1, “CYCLOSPORINE ANALOGUES” (priority 2022, published 2025).
Like-named read-outs stand apart in the source and are kept apart here.

Experiments:
Human stem cells (HSC) [1] = assay: Mean fluorescent intensity of transduced human stem cells (FIG. 7); type: cell-based
Procedure: Here a different measurement was made of transgene expression using the cells from the same experiment as that above (Example 5). Rather than measuring the number of cells transduced (% infection) the mean fluorescent intensity (greenness of the transgene expressing cells) was measured.

Human stem cells (HSC) [2] = type: cell-based
Human stem cells (HSC) [3] = assay: Cell viability of human stem cells (FIG. 5); conditions: compared with PS+LB treatment
IFITM3 [4] = molecular target: T1, IFITM3 (Homo sapiens, UniProt Q01628); type: cell-based; parameters: treated with 10 ng/ml type 1 interferon (IFNβ) overnight to induce IFITM3 expression; endogenous in cells; host or cells: THP-1 (human monocytic cell line), IFNβ-treated
CypA = CypA (Homo sapiens, UniProt P62937); assay: biochemical; type: binding; conditions: for Kd / Max Response: SPR, Biacore, 25° C.
Procedure: CypA binding was carried out using surface plasmon resonance as described (Warne J Biol Chem. 2016 Feb. 26; 291 (9): 4356-73).
Surface Plasmon Resonance (SPR) using Biacore at 25° C. was used to study the binding interactions between CypA and various inhibitors. The SPR binding experiments used a duel flow cell with a blank reference. The sensor chip surface was initially activated with a mixture of N-hydroxysuccinimide (NHS,) and N-(3-dimethyl-aminopropyl)-N′-ethyl-carbodiimide hydrochloride (EDC) for 420 s with a flow rate of 10 μl/min on blank flow cell 1 in addition to flow cell 2.
CypA protein was diluted to a concentration of 50 μg/mL by the addition of 10 mM sodium acetate pH 5 solution before immobilisation and covalent attachment to the carboxy-methylated dextran matrix of the Biacore CM5 sensor chip. CypA was run against the surface for 420 s and then any unreacted surface was quenched by 420 s of ethanolamine.
Immobilisations were carried out in the presence of JW47 (Warne J Biol Chem. 2016 Feb. 26; 291 (9): 4356-73).
No regeneration stage was required if the dissociation time was sufficient.
Solvent correction was carried out in each experiment using 8 different DMSO dilutions as reference: 2.8%, 2.6%, 2.4%, 2.2%, 2%, 1.8%, 1.6% & 1.5%.
A 50/50 mixture of buffer and DMSO is required to include a wash cycle in the experiment.
50 μl of CypA (0.1 mg/ml)+40 μL of 10 mM sodium acetate pH5+10 μl of 600 μM of JW47 DMSO solution. This mixture was allowed to stand at room temperature for 10 mins prior to set-up in the injection rack.

U87 cells = assay: HIV-GFP infection of U87 cells (FIG. 2); type: cell-based; conditions: MOI 0.3, tested at 2.5, 5, or 10 μM
Procedure: Next, an experiment was performed in U87 cells. These cells differ from THP-1 in that they express IFITM3 and TRIM5. Thus only inhibitors with reduced CypA inhibition will rescue infection. This functionally tests whether the inhibitors have lost CypA inhibition, but retain IFITM3 inhibition.
U87 cells were infected at an MOI of 0.3 in the presence of DMSO (0.1% v/v) or inhibitors at 2.5, 5, or 10 μM (left bar to right bar for each indicated compound, respectively). Inhibition of IFITM3 raises infectivity. Unlike other inhibitors, BG147 gives maximal infection enhancement at the lowest concentration of 2.5 μM. Other molecules achieve maximal infection rescue at the highest concentration.

IFITM3 [5] = molecular target: T1, IFITM3; type: cell-based; parameters: treated with 10 ng/ml type 1 interferon (IFNβ) overnight to induce IFITM3 expression; endogenous in cells; host or cells: THP-1 (human monocytic cell line), IFNβ-treated; remark: listed apart in the source
IFITM3 [6] = molecular target: T1, IFITM3; type: cell-based; parameters: treated with 10 ng/ml type 1 interferon (IFNβ) overnight to induce IFITM3 expression; endogenous in cells; host or cells: THP-1 (human monocytic cell line), IFNβ-treated; remark: listed apart in the source
IFITM3 [7] = molecular target: T1, IFITM3; assay: cell-based or functional assay
cyclophilin A (CypA) = cyclophilin A (CypA) (UniProt P62937); assay: SPR (Biacore, 25 C), CypA amine-coupled to CM5 chip, compound as analyte
cyclophilin A (CypA), sequence (P62937 whole entry): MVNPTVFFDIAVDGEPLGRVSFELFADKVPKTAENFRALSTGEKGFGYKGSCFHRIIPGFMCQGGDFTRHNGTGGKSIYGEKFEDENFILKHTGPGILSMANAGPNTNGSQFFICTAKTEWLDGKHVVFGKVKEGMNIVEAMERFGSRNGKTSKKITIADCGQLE

CypA, sequence (P62937 whole entry): as above
T1 sequence (Q01628 whole entry): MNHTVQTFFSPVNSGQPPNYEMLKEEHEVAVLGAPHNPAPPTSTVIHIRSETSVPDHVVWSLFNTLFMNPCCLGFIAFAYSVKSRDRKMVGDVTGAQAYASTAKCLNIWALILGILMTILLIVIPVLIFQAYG

Row | Molecule | koff (CypA) [s⁻¹] | kon (CypA) [M⁻¹ s⁻¹] | Max Response (CypA) [RU] | Kd (CypA; read-out: Kd (Affinity)) [µM] | also measured
1 | CC[C@@H]1NC(=O)[C@H]([C@H](O)[C@H](C)C/C=C/c2ccc(C(=O)OCCn3ccnc3)c3ccccc23)N(C)C(=O)[C@H](C(C)C)N(C)C(=O)[C@H](CC(C)C)N(C)C(=O)[C@H](CC(C)C)N(C)C(=O)[C@@H](C)NC(=O)[C@H](C)NC(=O)[C@H](CC(C)C)N(C)C(=O)[C@H](C(C)C)NC(=O)[C@H](CC(C)C)N(C)C(=O)CN(C)C1=O [BG147, 2-(1H-imidazol-1-yl)-ethyl-4-((4R,5R,E)-5-((2S,5S,11S,14S,17S,20S,23R,26S,29S,32S)-5-ethyl-11,17,26,29-tetraisobutyl-14,32-diisopropyl-1,7,10,16,20,23,25,28,31-nonamethyl-3,6,9,12,15,18,21,24,27,30,33-undecaoxo-1,4,7,10,13,16,19,22,25,28,31-undecaazacyclotritriacontan-2-yl)-5-hydroxy-4-methylpent-1-en-1-yl)-1-naphthoate] | 0.0216 | 9750 | 14.0 |  | overall performance as transduction enhancer in stem cells (Human stem cells (HSC) [1]; Examples 5 and 6): performs best; mean fluorescent intensity (greenness of transgene expressing cells) (Human stem cells (HSC) [1]; treatment with 2.5 μM BG147+PS+LB): greenest cells; transduction enhancement (% infected human stem cells), first donor (Human stem cells (HSC) [2]; 48 hours post transduction, FIG. 4): out performs other inhibitors and is as effective as state of the art transduction enhancer; transduction enhancement (% infected human stem cells), second HSC donor (Human stem cells (HSC) [2]; 48 hours post transduction, FIG. 6): out-performed other inhibitors including state of the art transduction enhancer combination of LB+PS; combination effect on number of transduced cells (Human stem cells (HSC) [2]; BG147 at 2.5 μM with PS and LB, second HSC donor): additive with PS and LB giving the best number of transduced (infected) cells; cell viability after treatment (Human stem cells (HSC) [3]): viability is good; relative potency in rescue of infection (IFITM3 [4]): more potent than CsH; rescue of infection from the antiviral effect of IFN (IFITM3 [4]): rescue infection from the antiviral effect of IFN; Kd (CypA; Kd (Affinity)): 5.27 µM; Kd (CypA; Kd (Kinetics)): 2.22 µM; concentration giving maximal infection enhancement (U87 cells): 2.5 µM; rescue of infection from IFN (% infected cells) (IFITM3 [5]): completely rescued infection from IFN
2 | CCc1cc(C(=O)OCCn2ccnc2)ccc1C=CC[C@@H](C)[C@@H](O)[C@H]1C(=O)N[C@@H](CC)C(=O)N(C)CC(=O)N(C)[C@@H](CC(C)C)C(=O)N[C@@H](C(C)C)C(=O)N(C)[C@@H](CC(C)C)C(=O)N[C@@H](C)C(=O)N[C@H](C)C(=O)N(C)[C@@H](CC(C)C)C(=O)N(C)[C@@H](CC(C)C)C(=O)N(C)[C@@H](C(C)C)C(=O)N1C [BG149] |  |  | 4.8 |  | 
3 | CC[C@@H]1NC(=O)[C@H]([C@H](O)[C@H](C)CC=Cc2ccc(C(=O)OCCn3ccnc3)cc2C)N(C)C(=O)[C@H](C(C)C)N(C)C(=O)[C@H](CC(C)C)N(C)C(=O)[C@H](CC(C)C)N(C)C(=O)[C@@H](C)NC(=O)[C@H](C)NC(=O)[C@H](CC(C)C)N(C)C(=O)[C@H](C(C)C)NC(=O)[C@H](CC(C)C)N(C)C(=O)CN(C)C1=O [BG150] | 0.0425 | 11100 | 18.7 | 1.31 | Kd (CypA; read-out: Kd (Kinetics)): 3.84 µM
4 | CC[C@@H]1NC(=O)[C@H]([C@H](O)[C@H](C)CC=Cc2ccc(C(=O)OCCn3ccnc3)cc2OC)N(C)C(=O)[C@H](C(C)C)N(C)C(=O)[C@H](CC(C)C)N(C)C(=O)[C@H](CC(C)C)N(C)C(=O)[C@@H](C)NC(=O)[C@H](C)NC(=O)[C@H](CC(C)C)N(C)C(=O)[C@H](C(C)C)NC(=O)[C@H](CC(C)C)N(C)C(=O)CN(C)C1=O [BG181] | 0.228 | 6360 | 9.8 | 2.66 | Kd (CypA; read-out: Kd (Kinetics)): 35.9 µM
5 | CC[C@@H]1NC(=O)[C@H]([C@H](O)[C@H](C)CC=Cc2ccc(C(=O)OCCn3ccnc3)cc2OC(C)C)N(C)C(=O)[C@H](C(C)C)N(C)C(=O)[C@H](CC(C)C)N(C)C(=O)[C@H](CC(C)C)N(C)C(=O)[C@@H](C)NC(=O)[C@H](C)NC(=O)[C@H](CC(C)C)N(C)C(=O)[C@H](C(C)C)NC(=O)[C@H](CC(C)C)N(C)C(=O)CN(C)C1=O [BG185] | 0.584 | 2250 | 14.5 | 2.92 | Kd (CypA; read-out: Kd (Kinetics)): 259 µM
6 | CC[C@@H]1NC(=O)[C@H]([C@H](O)[C@H](C)CC=Cc2c(OC)cc(C(=O)OCCn3ccnc3)cc2OC)N(C)C(=O)[C@H](C(C)C)N(C)C(=O)[C@H](CC(C)C)N(C)C(=O)[C@H](CC(C)C)N(C)C(=O)[C@@H](C)NC(=O)[C@H](C)NC(=O)[C@H](CC(C)C)N(C)C(=O)[C@H](C(C)C)NC(=O)[C@H](CC(C)C)N(C)C(=O)CN(C)C1=O [BG186, 2-(1H-imidazol-1-yl)ethyl 4-((4R,5R)-5-((2S,5S,11S,14S,17S,20S,23R,26S,29S,32S)-5-ethyl-11,17,26,29-tetraisobutyl-14,32-diisopropyl-1,7,10,16,20,23,25,28,31-nonamethyl-3,6,9,12,15,18,21,24,27,30,33-undecaoxo-1,4,7,10,13,16,19,22,25,28,31-undecaazacyclotritriacontan-2-yl)-5-hydroxy-4-methylpent-1-en-1-yl)-3,5-dimethoxybenzoate] | 0.422 | 14600 | 7.6 |  | Kd (CypA; Kd (Affinity)): 4.76 µM; Kd (CypA; Kd (Kinetics)): 28.9 µM
7 | CC[C@@H]1NC(=O)[C@H]([C@H](O)[C@H](C)CC=Cc2ccc(C(=O)OCCn3ccnc3)cc2C(F)(F)F)N(C)C(=O)[C@H](C(C)C)N(C)C(=O)[C@H](CC(C)C)N(C)C(=O)[C@H](CC(C)C)N(C)C(=O)[C@@H](C)NC(=O)[C@H](C)NC(=O)[C@H](CC(C)C)N(C)C(=O)[C@H](C(C)C)NC(=O)[C@H](CC(C)C)N(C)C(=O)CN(C)C1=O [BG190] | 0.0138 | 4800 | 13.2 | 6.07 | 
8 | C/C=C/C[C@@H](C)[C@@H](O)[C@H]1C(=O)N[C@@H](CC)C(=O)N(C)CC(=O)N(C)[C@@H](CC(C)C)C(=O)N[C@@H](C(C)C)C(=O)N(C)[C@@H](CC(C)C)C(=O)N[C@@H](C)C(=O)N[C@H](C)C(=O)N(C)[C@@H](CC(C)C)C(=O)N(C)[C@@H](CC(C)C)C(=O)N(C)[C@H](C(C)C)C(=O)N1C [CsH, Cyclosporine H, reference compound] |  |  |  |  | transduction enhancement (% infected human stem cells), first donor (Human stem cells (HSC) [2]): achieves good enhancement but at higher concentrations; rescue of infection from the antiviral effect of IFN (IFITM3 [4]): rescue infection from the antiviral effect of IFN
9 | CC[C@@H]1NC(=O)[C@H]([C@H](O)[C@H](C)C/C=C/CCCn2ccnc2)N(C)C(=O)C(C(C)C)N(C)C(=O)[C@H](CC(C)C)N(C)C(=O)[C@H](CC(C)C)N(C)C(=O)[C@@H](C)NC(=O)[C@H](C)NC(=O)[C@H](CC(C)C)N(C)C(=O)[C@H](C(C)C)NC(=O)[C@H](CC(C)C)N(C)C(=O)CN(C)C1=O (stereo partly shown) [JW-115, reference compound] |  |  |  |  | fold rescue compared to inhibited baseline (IFITM3 [6]): 14.2 fold
10 | Cyclosporine A (CsA) (peptide) |  |  |  |  | fold rescue of HIV-GFP infection compared to IFN-inhibited baseline, THP-1 cells, compound at 5 µM (IFITM3 [7]): 9.9 fold; Max Response (cyclophilin A (CypA)): 40 RU
11 | Cyclosporine H (CsH) (peptide) |  |  |  |  | fold rescue of HIV-GFP infection compared to IFN-inhibited baseline, THP-1 cells, compound at 5 µM (IFITM3 [7]): 24.6 fold
